Assay [1] has as its system E. coli (NCTC 1048). The experiment in a line: MIC values (minimum inhibitory concentration) against a sample E.coli organism. The assay is classed as cell-based. The source says: (§1) The following Examples illustrate the preparation of compounds of the invention and intermediates thereto.
The test system of assay [2] is S. aureus (Oxford). Briefly: MIC values (minimum inhibitory concentration) against a sample S.aureus organism. Format: cell-based. To be noted: in vitro.
From the text: as §1

Setting [3] is: Escherichia coli, NCTC1048, in vitro, E. coli (NCTC 1048), read-out: MIC.
[4] abbreviates: Staphylococcus aureus, read-out: MIC.

In general, MIC refers to the least concentration at which growth counts as inhibited.

≈ marks a conversion by molar mass, not a printed value. Structures can show the parent of a compound that is named as a salt. Where two headings read alike, the source gives them in different places.

`COC[C@@H]1CCC(C2=C(C(=O)O)N3C(=O)[C@@H](NC(=O)/C(=N\OC)c4csc(N)n4)[C@H]3SC2)O1` (stereo partly drawn) [Example 17, sodium (6R,7R)-7-[2-(2-aminothiazol-4-yl)-2-(Z)-methoxyiminoacetamido]-3-(5-methoxymethyltetrahydrofuran-2-yl)ceph-3-em-4-carboxylate]: the MIC in assay [1] (setting [3]) turned out to be 1 µg/mL; in assay [2] (setting [4]), 2 µg/mL.

On to `Nc1nc(/C(=N/OCC(=O)O)C(=O)N[C@@H]2C(=O)N3C(C(=O)O)=C(C4CCCO4)CS[C@H]23)cs1` (stereo partly drawn) [Example 21, (6R,7R)-7-[2-(2-aminothiazol-4-yl)-2-(Z)-carboxymethoxy-iminoacetamido]-3-[(RS)-tetrahydrofuran-2-yl]-ceph-3-em-4-carboxylic acid, disodium salt], for which the MIC was 0.25 µg/mL in assay [1] (setting [3]) and 8 µg/mL in assay [2] (setting [4]).

In the case of `CO/N=C(\C(=O)N[C@@H]1C(=O)N2C(C(=O)O)=C([C@@H]3CCCO3)CS[C@H]12)c1ccco1` [Example 28, Sodium (6R,7R)-7-[2-(furan-2-yl)-2-(Z)-methoxyimino-acetamido]-3-[(S)-tetrahydrofuran-2-yl]ceph-3-em-4-carboxylate], the MIC in assay [1] (setting [3]) is > 32 µg/mL; in assay [2] (setting [4]) it was 0.5 µg/mL.

Consider `CO/N=C(\C(=O)N[C@@H]1C(=O)N2C(C(=O)[O-])=C(C3CC[C@@H](C)O3)CS[C@H]12)c1csc(N)n1.[Na+]` (mixture of isomers) [Example 27, Sodium (6R,7R)-7-12-(2-aminothiazol-4-yl)-2-(Z)-methoxy-iminoacetamidol-3-[(5R,2SR)-5-methyltetrahydrofuran-2-yl]ceph-3-em-4-carboxylate], for which the MIC came out at 4.00 µg/mL in assay [1] (in vitro, E. coli (NCTC 1048)) and 1.00 µg/mL in assay [2].

Turning to `N[C@@H](C(=O)N[C@@H]1C(=O)N2C(C(=O)[O-])=C([C@@H]3CCCO3)CS[C@H]12)c1ccc(O)cc1.[Na+]` [Example 22, Sodium (6R,7R)-7-[(R)-2-Amino-2-(4-hydroxyphenyl)acetamido]-3-[(S)-tetrahydrofuran-2-yl]ceph-3-em-4-carboxylate], the minimal inhibitory concentration (MIC) in assay [1] (Escherichia coli, NCTC1048) stood at 8 µg/mL; in assay [2] (setting [4]) it was 0.25 µg/mL.

As for `CO/N=C(\C(=O)N[C@@H]1C(=O)N2C(C(=O)O)=C(C3CCOC3)CS[C@H]12)c1csc(N)n1` (some centres unmarked) [Example 13], the MIC was found to be 1 µg/mL (≈ 2.21 µM) in assay [1] (setting [3]) and 4 µg/mL (≈ 8.82 µM) in assay [2] (setting [4]).

For the compound `CO/N=C(\C(=O)N[C@@H]1C(=O)N2C(C(=O)O)=C([C@H]3CCCO3)CS[C@H]12)c1csc(N)n1` [Example 9, sodium (6R,7R)-7-[2-(2-aminothiazol-4-yl)-2-(Z)-methoxy-iminoacetamido]-3-[(R)-tetrahydrofuran-2-yl]ceph-3-em-4-carboxylate], the results for the MIC in assay [1] (setting [3]) and in assay [2] (setting [4]) were 1 µg/mL and 0.5 µg/mL, respectively.

Turning to `CO/N=C(\C(=O)N[C@@H]1C(=O)N2C(C(=O)O)=C([C@@H]3CCCO3)CS[C@H]12)c1csc(N)n1` [Example 7, Sodium (6R,7R)-7-[2-(2-aminothiazol-4-yl)-2-(Z)-methoxy-iminoacetamido]-3-[(S)-tetrahydrofuran-2-yl]ceph-3-em-4-carboxylate], the MIC in assay [1] (setting [3]) was 0.5 µg/mL; in assay [2] (setting [4]) it was 1 µg/mL.

For the compound `CO/N=C(\C(=O)N[C@@H]1C(=O)N2C(C(=O)[O-])=C(C3CCCCO3)CS[C@H]12)c1csc(N)n1.[Na+]` (mixture of isomers) [Example 3, Sodium (6R,7R)-7-[2-(2-Aminothiazol-4-yl)-2-(Z)-methoxyiminoacetamido]-3-[(RS) -tetrahydropyran-2-yl]-ceph-3-em-4-carboxylate], the minimal inhibitory concentration (MIC) in assay [1] (Escherichia coli, NCTC1048) was determined as 2 µg/mL; in assay [2] (setting [4]), 1 µg/mL.

On to “sodium 7- [2- (2-aminothiazol-4-yl)-2- (Z)-methoxyimino-acetamido]-3- (tetrahydrofuran-2-yl) -1-carba-1-dethiaceph-3-em-4-carboxylate [Example 24]”, for which the MIC is 0.12 µg/mL in assay [1] (in vitro, E. coli (NCTC 1048)) and 1.00 µg/mL in assay [2].

As for `CO/N=C(\C(=O)N[C@@H]1C(=O)N2C(C(=O)O)=C(C3CCCO3)CS[C@H]12)c1csc(N)n1` (stereo partly drawn) [Example 1, Sodium (6R,7R)-7-[2-(2-Aminothiazol-4-yl)-2-(Z)-methoxy-iminoacetamido]-3-[(RS)-tetrahydrofuran-2-yl]ceph-3-em-4-carboxylate], the MIC in assay [1] (setting [3]) was found to be 0.5 µg/mL; in assay [2] (setting [4]), 1 µg/mL.

`Nc1nc(/C(=N/O)C(=O)N[C@@H]2C(=O)N3C(C(=O)O)=C(C4CCCO4)CS[C@H]23)cs1` (stereo partly drawn) [Example 5, (6R,7R)-7-[2-(2-Aminothiazol-4-yl)-2-(Z)-hydroxyiminoacet-amido]-3-[(RS)-tetrahydrofuran-2-yl]ceph-3-em-4-carboxylic acid]: the MIC in assay [1] (setting [3]) came to 0.5 µg/mL (≈ 1.14 µM); in assay [2] (setting [4]), 0.25 µg/mL (≈ 0.569 µM).

Turning to `CC/C=C(\C(=O)N[C@@H]1C(=O)N2C(C(=O)O)=C([C@@H]3CCCO3)CS[C@H]12)c1csc(N)n1` [Example 18, sodium (6R,7R)-7-[2-(2-aminothiazol-4-yl)-(Z)-pent-2-enamido]-3-[(S)-tetrahydrofuran-2-yl]ceph-3-em-4-carboxylate], the MIC came out at 16 µg/mL in assay [1] (setting [3]) and 1 µg/mL in assay [2] (setting [4]).

(Values after patent US6001997A, “Cephalosporins and homologues, preparations and pharmaceutical compositions” (priority 1990, dated 1999).)
